37 compounds from patent US20230202985A1, “Indoles, Indazoles, and Related Analogs for Inhibiting YAP/TAZ-TEAD” (THE KATHOLIEKE UNIVERSITEIT LEUVEN, priority 2021, published 2023) can be followed below.

This experiment deals with YAP/TAZ-TEAD transcription. The experiment is described as follows: Reporter gene assay for measuring the inhibition of YAP/TAZ-TEAD transcription (TEAD-responsive element luciferase reporter in Hek293T cells). The class given is cell-based. The settings on record: Homo sapiens, HEK-293T; Hek293T cells transfected with TEAD-responsive luciferase reporter, 24 hours incubation. The method, then: Hek293T cells are cultured in DMEM supplemented with 10% fetal bovine serum, Sodium pyruvate, Sodium bicarbonate, L-glutamine. The cells are harvested and transiently transfected with TEAD-responsive element luciferase reporter. Transfected cells are plated in 384-wells plate containing pre-diluted compounds. After 24 hours incubation at 37° C./5% CO2, assay plates were cooled down to RT and levelled to an equal volume per well, prior to the addition of 25 uL luciferase substrate SteadyLite (Perkin Elmer)/well. The plate was shaken for 10 min at 600 rpm, centrifuged for 1 min at 500 rpm and measured with an Envision reader (PerkinElmer). The amount of relative light units produced by the TEAD reporter is used to calculated percent of inhibition.
The percent of reporter inhibition was calculated in the presence of a positive control inhibitor (100% inhibition) versus a condition with the presence of the vehicle basal activity of the reporter (0% inhibition). The ability of a test compound to inhibit this activity was determined as:
Percentage inhibition=[1−((RLU determined in the presence of vehicle−RLU determined for sample with test compound present) divided by (RLU determined in the presence of vehicle−RLU determined for sample with positive control inhibitor))]*100
The activities of example compounds tested are depicted in Table 6. The activity ranges A, B and C refer to IC50 values in the reporter gene assay as follows: “A”: IC50<1 μM; “B”: 1 μM≤IC50≤20 μM and “C”: IC50>20 μM; NT=not tested.
On the technique in general: A reporter such as luciferase makes a cellular process visible.
With `CS(=O)(=O)NCc1nn(-c2ccc(C(F)(F)F)cc2)c2ccc(OCC3CCOC3)cc12` (racemic) [compound 44, N-[[5-[[rac-tetrahydrofuran-3-yl]methoxy]-1-[4-(trifluoromethyl)phenyl]indazol-3-yl]methyl]methanesulfonamide], the concentration for a half-maximal effect (EC50) – broadly, the concentration needed to bring the measured effect to its halfway point – lay within 1 to 20 µM. As to `CS(=O)(=O)NCc1nn(-c2ccc(C(F)(F)F)cc2)c2ccc(Oc3ccccc3)cc12` [Cpd. No. 45, N-[[5-phenoxy-1-[4-(trifluoromethyl)phenyl]indazol-3-yl]methyl]methanesulfonamide], the EC50 fell in the range of 1 to 20 µM.

The compound `CCC(=O)NCc1nn(-c2ccc(C(F)(F)F)cc2)c2ccccc12` [compound 2, N-((1-(4-(trifluoromethyl)phenyl)-1H-indazol-3-yl)methyl)propionamide] yielded an EC50 of 1 to 20 µM. Under `CCC(=O)NCc1nn(-c2ccc(OC(F)(F)F)cc2)c2ccccc12` [compound 5, N-((1-(4-(trifluoromethoxy)phenyl)-1H-indazol-3-yl)methyl)propionamide] stands 1 to 20 µM.

The compound `CS(=O)(=O)NCc1nn(-c2ccc(OC(F)(F)F)cc2)c2ccccc12` [compound 6, N-((1-(4-(trifluoromethoxy)phenyl)-1H-indazol-3-yl)methyl)methanesulfonamide] registered a 50% effective concentration (EC50) of 1 to 20 µM.

`O=S1(=O)CCCN1Cc1nn(-c2ccc(C(F)(F)F)cc2)c2ccccc12` [compound 7, 2-((1-(4-(trifluoromethyl)phenyl)-1H-indazol-3-yl)methyl)isothiazolidine 1,1-dioxide] had an EC50 of 1 to 20 µM.

With `CNC(=O)c1nn(-c2ccc(C(F)(F)F)cc2)c2ccccc12` [compound 8, N-methyl-1-(4-(trifluoromethyl)phenyl)-1H-indazole-3-carboxamide], the EC50 is greater than 20 µM.

`Cn1cc(S(=O)(=O)NCc2nn(-c3ccc(C(F)(F)F)cc3)c3ccccc23)cn1` [compound 9, 1-methyl-N-((1-(4-(trifluoromethyl)phenyl)-1H-indazol-3-yl)methyl)-1H-pyrazole-4-sulfonamide]: the EC50 was greater than 20 µM. The compound `O=S(=O)(NCc1nn(-c2ccc(C(F)(F)F)cc2)c2ccccc12)c1cccnc1` [compound 10, N-((1-(4-(trifluoromethyl)phenyl)-1H-indazol-3-yl)methyl)pyridine-3-sulfonamide] had an EC50 greater than 20 µM. Under `O=S(=O)(NCc1nn(-c2ccc(C(F)(F)F)cc2)c2ccccc12)C1CC1` [compound 11, N-((1-(4-(trifluoromethyl)phenyl)-1H-indazol-3-yl)methyl)cyclopropanesulfonamide] stands 1 to 20 µM. For `CS(=O)(=O)NC(=O)c1nn(-c2ccc(C(F)(F)F)cc2)c2ccccc12` [compound 12, N-(methylsulfonyl)-1-(4-(trifluoromethyl)phenyl)-1H-indazole-3-carboxamide], the half-maximal effective concentration (EC50) is 1 to 20 µM. To `CN(C)S(=O)(=O)NCc1nn(-c2ccc(C(F)(F)F)cc2)c2ccccc12` [compound 13, N,N-dimethyl-N′-((1-(4-(trifluoromethyl)phenyl)-1H-indazol-3-yl)methyl)sulfamide] belongs 1 to 20 µM; to `O=C(NS(=O)(=O)C1CC1)c1nn(-c2ccc(C(F)(F)F)cc2)c2ccccc12` [compound 14, N-(cyclopropylsulfonyl)-1-(4-(trifluoromethyl)phenyl)-1H-indazole-3-carboxamide], greater than 20 µM; to `O=C(NCC(O)CO)c1nn(-c2ccc(C(F)(F)F)cc2)c2ccccc12` (stereo not shown) [compound 15, N-(2,3-dihydroxypropyl)-1-(4-(trifluoromethyl)phenyl)-1H-indazole-3-carboxamide], 1 to 20 µM. In turn, `CS(=N)(=O)NCc1nn(-c2ccc(C(F)(F)F)cc2)c2ccccc12` (stereo not shown) [compound 16, N-((1-(4-(trifluoromethyl)phenyl)-1H-indazol-3-yl)methyl)methanesulfonimidamide] displayed an EC50 of 1 to 20 µM. To `O=C1NCCN1Cc1nn(-c2ccc(C(F)(F)F)cc2)c2ccccc12` [compound 17, 1-((1-(4-(trifluoromethyl)phenyl)-1H-indazol-3-yl)methyl)imidazoiidin-2-one] belongs less than 1 µM; to `O=C1OCCN1Cc1nn(-c2ccc(C(F)(F)F)cc2)c2ccccc12` [compound 18, 3-((1-(4-(trifluoromethyl)phenyl)-1H-indazol-3-yl)methyl)oxazolidin-2-one], less than 1 µM; to `C=CC(=O)Nc1cn(-c2ccccc2)c2ccccc12` [compound 22, N-(1-phenyl-1H-indol-3-yl)acrylamide], 1 to 20 µM. `C=CC(=O)Nc1cn(-c2ccc(C(C)C)cc2)c2ccccc12` [compound 23, N-(1-(4-isopropylphenyl)-1H-indol-3-yl)acrylamide]: the EC50 is less than 1 µM. Under `C=CC(=O)Nc1cn(-c2ccc(Cl)cc2)c2ccccc12` [compound 24, N-(1-(4-chlorophenyl)-1H-indol-3-yl)acrylamide] stands less than 1 µM; under `C=CC(=O)Nc1cn(-c2cccc(Cl)c2)c2ccccc12` [compound 25, N-(1-(3-chlorophenyl)-1H-indol-3-yl)acrylamide], 1 to 20 µM; under `C=CC(=O)Nc1cn(-c2ccc(-c3ccccc3)cc2)c2ccccc12` [compound 26, N-(1-([1,1′-biphenyl]-4-yl)-1H-indol-3-yl)acrylamide], less than 1 µM. Under `CCC(=O)NCc1cn(-c2ccc(C(F)(F)F)cc2)c2ccccc12` [compound 28, N-((1-(4-(trifluoromethyl)phenyl)-1H-indol-3-yl)methyl)propionamide] stands 1 to 20 µM; under `CCC(=O)NCc1cc2ccccc2n1-c1ccc(C(F)(F)F)cc1` [compound 30, N-((1-(4-(trifluoromethyl)phenyl)-1H-indol-2-yl)methyl)propionamide], greater than 20 µM; under `C=CC(=O)NCc1cc2ccccc2n1Cc1cccc(C(F)(F)F)c1` [compound 32, N-((1-(3-(trifluoromethyl)benzyl)-1H-indol-2-yl)methyl)acrylamide], less than 1 µM. Compound `C=CC(=O)NC1C(=O)N(c2ccc(C(F)(F)F)cc2)c2ccccc21` (stereo not shown) [compound 33, N-(2-oxo-1-(4-(trifluoromethyl)phenyl)indolin-3-yl)acrylamide] returned an EC50 of 1 to 20 µM. `CC(=O)NC1C(=O)N(c2ccc(C(F)(F)F)cc2)c2ccccc21` (stereo not shown) [compound 34, N-(2-oxo-1-(4-(trifluoromethyl)phenyl)indolin-3-yl)acetamide] displayed a half-maximal effective concentration (EC50) greater than 20 µM.

On to `Cn1ccc(-c2cc(-c3ccccc3)cn3cc(CC(=O)O)nc23)n1` [compound 35, 2-(8-(1-methyl-1H-pyrazol-3-yl)-6-phenylimidazo[1,2-a]pyridin-2-yl)acetic acid], for which the EC50 was greater than 20 µM. For `O=C(O)Cc1cn2cc(-c3ccccc3)cc(-c3cnn(Cc4cccnc4)c3)c2n1` [compound 36, 2-(6-phenyl-8-(1-(pyridin-3-ylmethyl)-1H-pyrazol-4-yl)imidazo[1,2-a]pyridin-2-yl)acetic acid], the EC50 is greater than 20 µM. In turn, `CNC(=O)Cc1cn2cc(-c3ccccc3)cc(-c3ccn(C)n3)c2n1` [compound 37, N-methyl-2-(8-(1-methyl-1H-pyrazol-3-yl)-6-phenylimidazo[1,2-a]pyridin-2-yl)acetamide] yielded an EC50 greater than 20 µM. Under `Cn1ccc(-c2cc(Nc3ccccc3)cn3cc(CC(=O)O)nc23)n1` [compound 38, 2-(8-(1-methyl-1H-pyrazol-3-yl)-6-(phenylamino)imidazo[1,2-a]pyridin-2-yl)acetic acid] stands greater than 20 µM; under `CNC(=O)Cc1cn2cc(Nc3ccccc3)cc(-c3ccn(C)n3)c2n1` [compound 39, N-methyl-2-(8-(1-methyl-1H-pyrazol-3-yl)-6-(phenylamino)imidazo[1,2-a]pyridin-2-yl)acetamide], greater than 20 µM; under `C=CC(=O)NCc1nn(-c2ccc(C(F)(F)F)cc2)c2ccncc12` [compound 41, N-((1-(4-(trifluoromethyl)phenyl)-1H-pyrazolo[4,3-c]pyridin-3-yl)methyl)acrylamide], less than 1 µM. To `CS(=O)(=O)NCc1nn(-c2ccc(C(F)(F)F)cc2)c2ccc(OCC#N)cc12` [compound 42, N-[[5-(cyanomethoxy)-1-[4-(trifluoromethyl)phenyl]indazol-3-yl]methyl]methanesulfonamide] belongs greater than 20 µM; to `C=CC(=O)NCc1nn(-c2ccc(C(F)(F)F)cc2)c2ccc(Oc3cc(=O)[nH]c(=O)n3C)cc12` [compound 51, N-[[5-(3-methyl-2,6-dioxo-pyrimidin-4-yl)oxy-1-[4-(trifluoromethyl)phenyl]indazol-3-yl]methyl]prop-2-enamide], less than 1 µM. For the compound `CS(=O)(=O)NCc1nn(-c2ccc(C(F)(F)F)cc2)c2ccc(OCc3cc[nH]n3)cc12` [compound 52, N-[[5-(1H-pyrazol-3-ylmethoxy)-1-[4-(trifluoromethyl)phenyl]indazol-3-yl]methyl]methanesulfonamide], the EC50 lay within 1 to 20 µM. Compound `CCC(=O)NCc1nn(-c2ccc(C(F)(F)F)cc2)c2ccc(Oc3cc(=O)[nH]c(=O)n3C)cc12` [compound 53, N-[[5-(3-methyl-2,6-dioxo-pyrimidin-4-yl)oxy-1-[4-(trifluoromethyl)phenyl]indazol-3-yl]methyl]propanamide] registered an EC50 greater than 20 µM.
